Assays:
[1] = system: HeLa cells; assay: MTT assay for cytotoxicity; details: 2 h
Description: The cytotoxicity of the boronic acid derivatives from Table 1 was studied by MTT assay. 150,000 HeLa cells were plated in 96 well plates on the night before the experiments. On the day of experiments, the cells were treated with the boronic acid derivatives at three different concentrations (40 nM, 80 nM, and 160 nM) for 2 h. At the end of the incubation, MTT assays (In-Vitro toxicology MTT based assay kit, Sigma Aldrich, MO) were performed according to the manufacturer's protocol.

[2] = system: NF-κB; assay: NF-κB assay for inflammation (nuclear translocation of NF-κB, immunocytochemistry, PCC); details: HeLa cells; for Inflammation (PCC) 40 nM / Inflammation (PCC) 80 nM / Inflammation (PCC) 160 nM: 2 h, PCC between nuclear and cytoplasmic fraction of NF-κB; for nuclear or cytoplasmic localization of NF-κB (FIG. 4 images): boronic acids 80 nM, 2 hrs, LPS positive control
Description: 15,000 HeLa cells were plated in 96 well plates the night before the experiments. On the day of the experiments, the cells were treated with the boronic acids (Table 1, below) at three different concentrations (40 nM, 80 nM, and 160 nM) for 2 h. At the end of the incubation, cells were washed with phosphate buffered saline (PBS) and were fixed in 4% paraformaldehyde for 15 min and permeablized with 0.01% Triton X-100 in PBS for 10 min. The cells were washed with PBS three times. Nonspecific sites were blocked with 5% bovine serum albumin (BSA) in PBS and incubated with the Anti-NF-κB for 1 h, followed by incubation with fluorescein isothiocyanate (FITC)-labeled secondary antibody. After washing the cells at the end of the incubation, the cells were treated with 4′,6-diamidino-2-phenylindole (DAPI) for 1 min and kept at 4° C. until further analysis. Images of the cells were acquired with a Beckman-Coulter 100 automated high-throughput microscope system and analyzed using Cytseer software (Vala Sciences, CA). The co-localization of NF-κB was quantified by measuring the PCC between the nuclear and cytoplasmic fraction of the NF-κB molecule. The PCC is a measure of the overlap between the pixel intensities of the nuclear and NF-κB images of the same cell. The PCC values can range from −1 to 1. […] A negative correlation (negative PCC value) indicates an absence of nuclear translocation.

[3] = Binding assay: competition with ConA-FITC on glucose-terminated magnetic beads; details: relative to ConA; 2.4 μM ConA-FITC, boronic acid 2.5 μM to 20 μM, PBS pH 7.2
Description: The binding affinity of boronic acid derivatives to glucose was determined by competition assay using ConcanavalinA (ConA) as the competitive standard, and varying concentrations of the boronic acid derivatives. Carboxy-terminated magnetic beads were activated by suspending the beads in 100 mM 2-(N-morpholino)ethanesulfonic acid (MES) buffer (pH 4.5). Glucosamine (100 mg/mL) was conjugated to the activated magnetic beads using carbodiimide coupling with 1-ethyl-3-(3-dimethylaminopropyl)carbodiimide (EDC) as a crosslinker. The conjugation reaction was carried out in a 96 well plate. The reaction was run for 24 h. The beads were separated by placing the microplate on a magnetic separator and were washed thoroughly with PBS at pH 7.2 to remove unbound glucose, excess EDC, and N-hydroxysulfosuccinimide (Sulfo-NHS).
The glucose terminated beads were co-incubated for 1 h with 2.4 μM ConA (a known binder of carbohydrates) fluorescently tagged with fluorescein isothiocyanate (ConA-FITC), and titrated with concentrations ranging from 2.5 μM to 20 μM of each boronic acid derivative tested. The following controls were used: (A) carboxy-terminated magnetic beads (not conjugated to glucose) were treated with ConA-FITC to determine non-specific binding; and (B) glucose conjugated beads were treated with a high concentration of non-fluorescent ConA to determine maximal binding.
The wells were washed three times with PBS at pH 7.2 to remove unbound boronic acid derivatives and FITC-ConA. The beads were re-suspended in PBS and stirred for 15 min at rt before measuring FITC fluorescence (excitation: 495 nm, top emission: 520 nm; 6 flashes per well; average of n=3 wells in a Flexstation 11^384 microplate reader to quantify the amount of glucose bound to the boronic acids). The fluorescence intensity was measured and used as an indication of the amount of ConA bound to the surface of the beads, or [ConAs]. The ConA-sugar interaction was expected to be inhibited by the boronic acid derivatives, which can bind the sugar molecules and displace the bound ConA-FITC, thereby causing a decrease in fluorescence intensity of the mixture.
The binding constant of the boronic acid derivatives was calculated from the fluorescence intensity. The reduction of fluorescence intensity is related to [ConAs] by Equation 2.
[formula] The relationship between [ConAs] and the amount of boronic acid [BA] is given by Equation 3.
[formula] Simple rearrangement yields Equation 4, from which the ratio of the two equilibrium constants (KConA/KBA) can be derived.
[formula] • The concentration of sugar sites (S1) can be calculated from the intercept of a plot of 1/[ConAs] vs 1/[BA].

Inflammation (PCC) 40 nM [2] | Inflammation (PCC) 80 nM [2] | Inflammation (PCC) 160 nM [2] | Sugar Binding Affinity Log(KaBA/KaConA) [3] | Structure (SMILES) | MTT (% Cell Survival) 40 nM [1] [%] | MTT (% Cell Survival) 80 nM [1] [%] | MTT (% Cell Survival) 160 nM [1] [%] | nuclear or cytoplasmic localization of NF-κB (FIG. 4 images) [2]
−0.0553 | −0.0396 | 0.1494 | −2.9 | OB(O)c1cccnc1Br [2-bromopyridine-3-boronic acid] | 102.96 | 94.00 | 87.88 | 
−0.1236 | −0.0401 | 0.1862 | −0.14 | CN(C)c1cccc(B(O)O)c1 [3-(N,N-dimethylamino)phenyl boronic acid] | 123.37 | 86.2247 | 85.91 | 
−0.0824 | 0.03311 | 0.3965 | −1.03 | OB(O)c1cccc(Cl)c1 [3-chlorophenylboronic acid] | 97.1779 | 73.129 | 38.55 | 
−0.0838 | 0.01211 | 0 | −1.03 | NC(=O)c1ccc(B(O)O)cc1 [4-aminocarbonylphenylboronic acid] | 86.57 | 97.67 | 57.28 | 
0.00184 | 0.1802 | 0.129 |  | CCS(=O)(=O)c1ccc(B(O)O)cc1 [4-ethylsulfonyl-phenylboronic acid] | 67.61 | 66.47 | 37.46 | 
0.02454 | 0.06312 | 0.2343 |  | CC(=O)c1ccc(B(O)O)s1 [5-acetyl-2-thiopheneboronic acid] | 84.50 | 82.81 | 51.27 | 
−0.0808 | −0.0523 | −0.08086 |  | COc1ccc(C#N)cc1B(O)O [5-cyano-2-methoxyphenylboronic acid] | 81.55 | 49.84 | 62.08 | 
−0.01 | 0.1051 | 0.2434 |  | N#Cc1ccc(B(O)O)s1 [5-cyanothiophene-2-boronic acid] | 80.56 | 40.00 | 44.78 | 
−0.0169 | 0.02474 | 0.2936 |  | COc1ccc(F)cc1B(O)O [5-fluoro-2-methoxyphenylboronic acid] | 84.22 | 84.22 | 54.92 | 
0.00989 | −0.0122 | 0.1132 |  | O=Cc1ccc(B(O)O)o1 [5-formyl-2-furanboronic acid] | 77.18 | 94.08 | 50.14 | 
−0.0412 | 0.02463 | 0.2784 |  | OB(O)c1cccc2cnccc12 [5-isoquinolineboronic acid] | 75.80 | 60.84 | 41.69 | predominantly nuclear NF-κB
−0.0675 | 0.05743 | 0.1837 |  | CC(C)(C)OC(=O)n1cccc1B(O)O [N-boc-2-pyrroleboronic acid] | 60.6873 | 51.264 | 39.41 | 
−0.126 | 0.00746 | 0.1336 |  | Cn1c(B(O)O)cc2ccccc21 [N-methylindole-2-boronic acid] | 63.3131 | 63.6075 | 47.46 | 
−0.0551 | 0.01168 | 0.1634 |  | OB(O)C1=CCCC1 [cyclopenten-1-yl boronic acid] | 99.21 | 79.90 | 68.16 | 
−0.0484 | 0.03475 | 0.1705 |  | OB(O)C1CC1 [cyclopropylboronic acid] | 81.55 | 107.79 | 80.01 | 
−0.0205 | 0.02739 | 0.1157 |  | CC(C)OB(CBr)OC(C)C [diisopropyl(bromomethyl)boronate] | 81.27 | 96.62 | 79.32 | 
0.0154 | 0.0762 | 0.2584 |  | OB(O)c1c(F)c(F)c(F)c(F)c1F [pentafluorophenylboronic acid] | 65.63 | 60.00 | 50.98 | 
−0.0683 | 0.0268 | 0.1094 |  | OB(O)c1cccc2c1Sc1ccccc1S2 [thianthrene-1-boronic acid] | 64.19 | 61.32 | 81.10 | 
−0.1303 | 0.1523 | 0 |  | OB(O)/C=C/c1ccccc1 [trans-2-Phenylvinylboronic acid] | 72.90 | 99.51 | 65.87 | 
−0.0586 | 0.00516 | −0.01522 |  | O=c1[nH]cc(B(O)O)c(=O)[nH]1 [uracil-5-boronic acid] | 68.5083 | 50.3499 | 28.07 | 

Structure (SMILES) | Inflammation (PCC) 40 nM [2] | Inflammation (PCC) 80 nM [2] | Inflammation (PCC) 160 nM [2] | Sugar Binding Affinity Log(KaBA/KaConA) [3] | MTT (% Cell Survival) 40 nM [1] [%] | MTT (% Cell Survival) 80 nM [1] [%] | MTT (% Cell Survival) 160 nM [1] [%] | nuclear or cytoplasmic localization of NF-κB (FIG. 4 images) [2]
CC(C)(C)Oc1ncc(B(O)O)c(OC(C)(C)C)n1 [2,4-di-tert-butoxypyrimidin-5-ylboronic acid] | −0.0888 | 0.03106 | 0.1726 | 0.008 | 100.46 | 90.60 | 71.81 | predominantly cytoplasmic NF-κB
OB(O)c1ccc(Cl)cc1Cl [2,4-dicholorophenylboronic acid] | −0.0502 | 0.09386 | 0.3067 | −0.93 | 99.29 | 81.59 | 79.9 | 
OB(O)c1cc2cc(Br)ccc2s1 [5-bromobenzo-B-thophene-2boronic acid] | −0.0244 | −0.01 | 0.1265 |  | 71.83 | 81.40 | 90.42 | 
OB(O)c1cncc(Br)c1 [5-bromopyridine-3-boronic acid] | −0.038 | 0.1311 | 0.2913 |  | 134.748 | 37.2764 | 30.04 | 
